Where a name gives a salt, the structure may show the parent alone.
Assays:
[1] = tested on: rabbits whose internal capsule was destroyed; settings: known therapeutic agents; already confirmed by experiments; cited from earlier work
[2] = tested on: male mice; assay: Toxicity in male mice, tail intravenous; assay type: in vivo, mouse; settings: 100 mg/kg tail intravenous over 30 seconds; observed 75 hours
[3] = tested on: sciatic nerve; assay: Afferent evoked potential in the cerebral cortex in response to stimulation of the sciatic nerve; assay type: in vivo
Experimental: In order to test the effect of the active compound of the present invention on perception, an experiment was carried out on afferent evoked potential in response to stimulation of the sciatic nerve.
When the sciatic nerve is stimulated, the potential evoked in the cerebral cortex is recorded and summed up. These evoked electric potentials are firstly three small negative responses, subsequently a positive response and followed by two large negative responses, which are designated as N1, N2, N3, P, N4 and N5, respectively.
In order to examine the effect of a compound of the present invention: dilinoleoylphosphatidic acid disodium salt on these components, N1, N2, N3, P, N4 and N5, sciatic nerve was simulated once per 1 second and the data of 50 times of stimulus were recorded and summed up. The results are shown in the accompanying FIGS. 15, 16, 17, 18, 19 and 20 which correspond to the data of N1, N2, N3, P, N4 and N5, respectively.

[4] = tested on: ICR mice; assay: 7-day toxicity in ICR mice; settings: mouse, in vivo
[5] = tested on: Spragne-Dowley rats; assay: 7-day toxicity in rats; settings: rat, in vivo

C[N+](C)(C)CCOP(=O)(O)OP(=O)([O-])OC[C@H]1O[C@@H](n2ccc(N)nc2=O)[C@H](O)[C@@H]1O [Citicoline, cytidine diphosphate choline]
effect on thresholds of evoked muscular discharge in fore- and hind-limbs [1]: decreasing effect of the thresholds of evoked muscular discharge

CN(C)CCOC(=O)COc1ccc(Cl)cc1.Cl [Meclofenoxate hydrochloride, (4-chlorophenoxy)acetic acid 2-(dimethylamino)ethyl ester hydrochloride]
effect on thresholds of evoked muscular discharge in fore- and hind-limbs [1]: decreasing effect of the thresholds of evoked muscular discharge

Cc1ncc(CSSCc2cnc(C)c(O)c2CO)c(CO)c1O [Pyrithioxin, 3,3'-(dithiodimethylene)-bis[5-hydroxy-6-methyl-4-pyridinemethanol]]
effect on thresholds of evoked muscular discharge in fore- and hind-limbs [1]: decreasing effect of the thresholds of evoked muscular discharge

CCCCC/C=C\C/C=C\CCCCCCCC(=O)OCC(COP(=O)(O)O)OC(=O)CCCCCCC/C=C\C/C=C\CCCCC (centres unmarked) [dilinoleoylphosphatidic acid disodium salt]
mortality [2]: no mouse was died
effect on the afferent pathway ([3]; in vivo): facilitatory effect on the afferent pathway
effect on evoked potential components N1 and N2 ([3]; stimulation once per 1 second, 50 summed, FIGS. 15, 16): facilitatory effect on the components, N1 and N2, particularly on N1

Cytochrome C: already used as therapeutic agent for the treatment of consciousness disorder and perception and movement disorder
effect on thresholds of evoked muscular discharge in fore- and hind-limbs [1]: decreasing effect of the thresholds of evoked muscular discharge

polyenephosphatidylcholine
difference between male and female [4]: no difference between male and female
symptoms [4]: no abnormal symptom was observed except that the voluntary movement was slightly inhibited in the groups administered in a large dose
difference between male and female [5]: no difference between male and female
symptoms [5]: no abnormal symptom was observed except that the voluntary movement was slightly inhibited in the groups administered in a large dose

Source: patent US4263286A, “Therapeutic agent for consciousness disorder and perception and movement disorder” (Nippon Shoji Kaisha, Ltd., priority 1978, dated 1981)
